Experimental data from article PMC12663132, “Assessment of cytotoxicity of some synthetic compounds against breast carcinoma spheroids with subsequent analysis of pro-apoptotic and gene expression” (Scientific Reports, 2025).
Structures can show the parent of a compound that is named as a salt.

Key:
MCF7 = assay: Cytotoxicity on MCF7 monolayers (MTT assay); conditions: for cytotoxicity at 50 µM: Homo sapiens, MCF7, 72 h, read-out: Mean of % cytotoxicity ± SD
Description: (§1) Eighty pre-plated synthetic chemical compounds were screened on two human cell lines: MCF7 (ATCC® HTB-22™), a Caucasian breast adenocarcinoma model, and hTERT-RPE-1 (ATCC® CRL-4000™), a normal retinal epithelial cell line immortalized by hTERT telomerase. […] The cells were cultured in DMEM-F12 medium supplemented with L-glutamine and 10% fetal bovine serum, all were purchase from Biowest (Biotechnology company in Nuaillé, France), and maintained in a controlled incubator environment set at 37 °C with 5% CO2 and 95% humidity.
MCF7 cells were seeded in flat-bottom 96-well plates with a concentration of 20,000 cells/well, and were left overnight. The compounds were tested at a final concentration of 50 µM. Doxorubicin was used as a positive control and 0.5% DMSO as a negative control. The treatment duration was 72 h. The cytotoxicity was then assessed using the MTT assay, as described by Mosmann[43].

MCF7 3D spheroids = assay: Cytotoxicity on MCF7 3D multicellular spheroids (acid phosphatase method); conditions: for cytotoxicity at 50 µM: MCF7, 120 h, read-out: Mean of % cytotoxicity ± S.D
Description: as §1
3-D spheroid models were generated from MCF7 cancer and hTERT-RPE1 normal cells were seeded at 10,000 and 50,000 cells/well, respectively, in poly-HEMA coated round bottom plates according to the protocol previously mentioned[44]. The cells were incubated for 5 days to generate the spheroids with diameter of 500 ± 20 µm. The spheroids were imaged using Olympus S100, U-CMAD3 camera connected to Olympus inverted microscope and the diameter of the spheroids was measured using Cellscen-Entry software. Test compounds were added in triplicate to a final concentration of 50 µM and were incubated for 120 h. […] At the end of incubation, cytotoxicity was determined using the acid phosphatase method[45]. After washing twice with 250 μL PBS buffer, 100 μL of 0.1 M sodium citrate, 0.1% Triton X-100, p-nitrophenylphosphate (2 mg/ml) (Pierce Biotechnology Inc., Rockford, IL) was added to each well and incubated for 1.5 h at 37 °C. After incubation, 10 μL of 1N NaOH stop solution was added to each well, and absorbance was read at 405 nm. Cytotoxicity was calculated according to the following equation:

NNC(=O)Cc1ccccc1 [B10, 2-phenylacetohydrazide]
cytotoxicity at 50 µM (MCF7): 0% | cytotoxicity at 50 µM (MCF7 3D spheroids; Homo sapiens): 48.2 ± 0.23%

O=[N+]([O-])c1cc(C(F)(F)F)ccc1-n1ccc(C(F)(F)F)n1 [B11, 1-[2-nitro-4-(trifluoromethyl)phenyl]-3-(trifluoromethyl)-1H-pyrazole]
cytotoxicity at 50 µM (MCF7): 0% | cytotoxicity at 50 µM (MCF7 3D spheroids; Homo sapiens): 30.5 ± 0.53%

Cn1c(=NN=c2oc3ccccc3n2C)oc2ccccc21 [C03, 1,2-di(3-methyl-2,3-dihydro-1,3-benzoxazol-2-yliden)hydrazine]
cytotoxicity at 50 µM (MCF7): 86.6 ± 9.3% | cytotoxicity at 50 µM (MCF7 3D spheroids; Homo sapiens): 3.4 ± 0.17%

Cn1ccnc1SCC(=O)Nc1ccc(C(C)(C)C)cc1 [C04, N1-[4-(tert-butyl)phenyl]-2-[(1-methyl-1H-imidazol-2-yl)thio]acetamide]
cytotoxicity at 50 µM (MCF7): 14.5 ± 0.58% | cytotoxicity at 50 µM (MCF7 3D spheroids; Homo sapiens): 28.6 ± 0.76%

C(=Cc1ccco1)C1=NN(Cc2ccccc2)CC1 [C05, 1-benzyl-3-[2-(2-furyl)vinyl]-4,5-dihydro-1H-pyrazole hydrochloride]
cytotoxicity at 50 µM (MCF7): 62.9 ± 3.8% | cytotoxicity at 50 µM (MCF7 3D spheroids; Homo sapiens): 48.6 ± 2%

COc1ccc(C(=O)NCc2ccco2)cc1OC [C06, N-(2-furylmethyl)-3,4-dimethoxybenzamide]
cytotoxicity at 50 µM (MCF7): 0% | cytotoxicity at 50 µM (MCF7 3D spheroids; Homo sapiens): 35.8 ± 0.23%

Cc1cc(C)n(-c2ccc(S(N)(=O)=O)cc2)n1 [C07, 4-(3,5-dimethyl-1H-pyrazol-1-yl)benzene-1-sulfonamide]
cytotoxicity at 50 µM (MCF7): 0% | cytotoxicity at 50 µM (MCF7 3D spheroids; Homo sapiens): 55.4 ± 2.3%

CC(=O)c1ccccc1OC(=O)c1ccc([N+](=O)[O-])o1 [C08, 2-acetylphenyl 5-nitro-2-furoate]
cytotoxicity at 50 µM (MCF7): 66.3 ± 4.3% | cytotoxicity at 50 µM (MCF7 3D spheroids; Homo sapiens): 30.8 ± 1.3%

CC(=O)Nc1ccc(NC(=O)c2nccnc2C(=O)O)cn1 [C09, 3-({[6-(acetylamino)-3-pyridinyl]amino}carbonyl)-2-pyrazinecarboxylic acid]
cytotoxicity at 50 µM (MCF7): 9.9 ± 1.1% | cytotoxicity at 50 µM (MCF7 3D spheroids; Homo sapiens): -23.4 ± 0.5% | inhibition at 50 µM (MCF7 3D spheroids; Homo sapiens, MCF7, read-out: % inhibition 3D): -23%

O=C(SCc1cccc(C(F)(F)F)c1)c1ccc(Cl)c(Cl)c1 [C10, S-[3-(trifluoromethyl)benzyl] 3,4-dichlorobenzene carbothioate]
cytotoxicity at 50 µM (MCF7): 100 ± 0.003% | cytotoxicity at 50 µM (MCF7 3D spheroids; Homo sapiens): 33.8 ± 1.6%

O=C(NNC(=O)c1ccc(OC(F)(F)F)cc1)c1ccc(Cl)cc1 [C11, N'1-(4-chlorobenzoyl)-4-(trifluoromethoxy)benzene-1-carbohydrazide]
cytotoxicity at 50 µM (MCF7): 83.1 ± 1.17% | cytotoxicity at 50 µM (MCF7 3D spheroids; Homo sapiens): 66.5 ± 0.24%

O=[N+]([O-])c1ccc2nc(-c3ccccc3)c(-c3ccccc3)nc2c1 [D02, 6-nitro-2,3-diphenylquinoxaline]
cytotoxicity at 50 µM (MCF7): 5.2 ± 0.18% | cytotoxicity at 50 µM (MCF7 3D spheroids; Homo sapiens): -8 ± 0.003%

O=C(Nc1cccc(-c2ncon2)c1)C(Cl)(Cl)Cl [D03, 2,2,2-trichloro-N-[3-(1,2,4-oxadiazol-3-yl)phenyl]acetamide]
cytotoxicity at 50 µM (MCF7): 11.1 ± 0.9% | cytotoxicity at 50 µM (MCF7 3D spheroids; Homo sapiens): 23.5 ± 0.17%

Cc1c(C)c(C)c2[nH]c(-c3ccc4c(c3)OCO4)nc2c1C [D04, 2-(1,3-benzodioxol-5-yl)-4,5,6,7-tetramethyl-1H-benzimidazole]
cytotoxicity at 50 µM (MCF7): 100 ± 0.003% | cytotoxicity at 50 µM (MCF7 3D spheroids; Homo sapiens): 67.9 ± 0.5%

CC(=O)Nc1ccc(-c2ccccc2)cc1 [D05, N-[1,1'-biphenyl]-4-ylacetamide]
cytotoxicity at 50 µM (MCF7): 49.7 ± 4.1% | cytotoxicity at 50 µM (MCF7 3D spheroids; Homo sapiens): 50.9 ± 2.4%

COc1c(Cl)cc([N+](=O)[O-])c(OC)c1C(=O)O [D06, 3-chloro-2,6-dimethoxy-5-nitrobenzoic acid]
cytotoxicity at 50 µM (MCF7): 10.4 ± 0.6% | cytotoxicity at 50 µM (MCF7 3D spheroids; Homo sapiens): 40.8 ± 2.1%

COc1cc(-n2c(S)nnc2CCc2nc(-c3ccc(Cl)cc3)no2)c(OC)cc1Cl [D07, 4-(4-chloro-2,5-dimethoxyphenyl)-5-{2-[3-(4-chlorophenyl)-1,2,4-oxadiazol-5-yl]ethyl}-4H-1,2,4-triazole-3-thiol]
cytotoxicity at 50 µM (MCF7): 88.7 ± 0.23% | cytotoxicity at 50 µM (MCF7 3D spheroids; Homo sapiens): 50.1 ± 2.3%

Cc1ccc(OCC(O)CN2CCC(C(N)=O)CC2)c([N+](=O)[O-])c1 (centres unmarked) [D09, 1-[2-hydroxy-3-(4-methyl-2-nitrophenoxy)propyl]piperidine-4-carboxamide]
cytotoxicity at 50 µM (MCF7): 7.6 ± 0.2% | cytotoxicity at 50 µM (MCF7 3D spheroids; Homo sapiens): 50 ± 0.35%

COc1ccc(NNC(=O)c2c(-c3c(F)cccc3Cl)noc2C)cc1 [D10, 3-(2-chloro-6-fluorophenyl)-N'-(4-methoxyphenyl)-5-methyl-4-isoxazolecarbohydrazide]
cytotoxicity at 50 µM (MCF7): 52.1 ± 2.11% | cytotoxicity at 50 µM (MCF7 3D spheroids; Homo sapiens): 51.7 ± 1.1%

CCCc1cc(=O)oc2cc(OC(C)C(=O)NNS(=O)(=O)c3cccc(C(F)(F)F)c3)ccc12 (centres unmarked) [D11, N'1-{2-[(2-oxo-4-propyl-2H-chromen-7-yl)oxy]propanoyl}-3-(trifluoromethyl)benzene-1-sulfonohydrazide]
cytotoxicity at 50 µM (MCF7): 35.5 ± 0.35% | cytotoxicity at 50 µM (MCF7 3D spheroids; Homo sapiens): 40.6 ± 0.11%

CCOC1=NC(=Cc2[nH]c(OCC)c(CC(=O)OC)c2C(=O)OC)C(C(=O)OC)=C1CC(=O)OC [E02, methyl 5-ethoxy-2-{[5-ethoxy-3-(methoxycarbonyl)-4-(2-methoxy-2-oxoethyl)-2H-pyrrol-2-yliden]methyl}-4-(2-methoxy-2-oxoethyl)-1H-pyrrole-3-carboxylate]
cytotoxicity at 50 µM (MCF7): 83.2 ± 1.2% | cytotoxicity at 50 µM (MCF7 3D spheroids; Homo sapiens): -10.8 ± 0.7%

CC(C)(C)SCCNc1nc(Oc2ccc(F)cc2)nc(Oc2ccc(F)cc2)n1 [E03, N2-[2-(tert-butylthio)ethyl]-4,6-di(4-fluorophenoxy)-1,3,5-triazin-2-amine]
cytotoxicity at 50 µM (MCF7): 80.3 ± 1.5% | cytotoxicity at 50 µM (MCF7 3D spheroids; Homo sapiens): 41.8 ± 0.6%

CCOc1nc2ccccc2nc1OCC [E04, 2,3-diethoxyquinoxaline]
cytotoxicity at 50 µM (MCF7): 62.6 ± 3.1% | cytotoxicity at 50 µM (MCF7 3D spheroids; Homo sapiens): 42 ± 1.1%

CN(C)C=C1Cc2ccccc2C1=O [E05, 2-[(dimethylamino)methylidene]indan-1-one]
cytotoxicity at 50 µM (MCF7): 47.5 ± 6.2% | cytotoxicity at 50 µM (MCF7 3D spheroids; Homo sapiens): 41.4 ± 3.6%

N#CC1(c2ccccc2)N=C2C=CC=CN2N=C1c1ccccc1 (centres unmarked) [E06, 2,3-diphenyl-2H-pyrido[1,2-b][1,2,4]triazine-2-carbonitrile]
cytotoxicity at 50 µM (MCF7): 26.7 ± 1.18% | cytotoxicity at 50 µM (MCF7 3D spheroids; Homo sapiens): 55 ± 1.6%

NS(=O)(=O)c1ccc(NNC(=O)c2cccs2)cc1 [E07, 4-[2-(2-thienylcarbonyl)hydrazino]benzenesulfonamide]
cytotoxicity at 50 µM (MCF7): 0% | cytotoxicity at 50 µM (MCF7 3D spheroids; Homo sapiens): 36.2 ± 0.35%

NC(=NOC(=O)Nc1ccc(OC(F)(F)F)cc1)c1cnccn1 [E08, N'-({[4-(trifluoromethoxy)anilino]carbonyl}oxy) pyrazine-2-carboximidamide]
% inhibition 2D (MCF7; MCF7 monolayer, 50 µM): 84.1% | Mean of % cytotoxicity ± SD (MCF7; MCF7 monolayer, 50µM, 72 h, MTT): 84.1 ± 1.6% | % inhibition 3D (MCF7 3D spheroids; MCF7 3D spheroids, 50 µM): 40.2% | Mean of % cytotoxicity ± S.D (MCF7 3D spheroids; MCF7 3D spheroids, 50µM, 120 h): 40.2 ± 3.8%

COc1ccc(Cl)cc1NC(=O)Nc1ccc(N2CCCCC2)cc1 [E09, N-(5-chloro-2-methoxyphenyl)-N'-(4-piperidinophenyl) urea]
cytotoxicity at 50 µM (MCF7): 28.3 ± 0.9% | cytotoxicity at 50 µM (MCF7 3D spheroids; Homo sapiens): 50.7 ± 0.52%

CC1(C)C=Cc2cc(C(N)=NOC(=O)c3cccc(C(F)(F)F)c3)ccc2O1 [E10, O6-[3-(trifluoromethyl)benzoyl]-2,2-dimethyl-2H-chromene-6-carbohydroximamide]
cytotoxicity at 50 µM (MCF7): 100 ± 0.003% | cytotoxicity at 50 µM (MCF7 3D spheroids; Homo sapiens): 67.5 ± 0.5%

CC1(C)CC(=O)C2=C(C1)OC(N)=C(C#N)C2c1ccc(Cl)cc1 (centres unmarked) [E11, 2-amino-4-(4-chlorophenyl)-7,7-dimethyl-5-oxo-5,6,7,8-tetrahydro-4H-chromene-3-carbonitrile]
cytotoxicity at 50 µM (MCF7): 93.7 ± 1.29% | cytotoxicity at 50 µM (MCF7 3D spheroids; Homo sapiens): 66.4 ± 1.9%

O=C1C2CCN(CC2)C1CSc1ccc(Cl)cc1 (centres unmarked) [F02, 2-{[(4-chlorophenyl)thio]methyl}quinuclidin-3-one]
cytotoxicity at 50 µM (MCF7): 100 ± 0.003% | cytotoxicity at 50 µM (MCF7 3D spheroids; Homo sapiens): 52 ± 2.9%

O=C1C2CC=CCC2C(=O)N1c1cccc(N2C(=O)C3CC=CCC3C2=O)n1 (centres unmarked) [F04, 2-[6-(1,3-dioxo-2,3,3a,4,7,7a-hexahydro-1H-isoindol-2-yl)-2-pyridyl]-2,3,3a,4,7,7a-hexahydro-1H-isoindole-1,3-dione]
cytotoxicity at 50 µM (MCF7): 46.9 ± 2.6% | cytotoxicity at 50 µM (MCF7 3D spheroids; Homo sapiens): 29.8 ± 1.23%

O=C1CNC(=S)N1CCOc1ccc(Cl)cc1 [F05, 3-[2-(4-chlorophenoxy)ethyl]-2-thioxoimidazolidin-4-one]
cytotoxicity at 50 µM (MCF7): 96.9 ± 1.4% | cytotoxicity at 50 µM (MCF7 3D spheroids; Homo sapiens): 31.6 ± 0.8%

Cc1ccc(S(=O)(=O)CCNC(=O)c2c(-c3c(Cl)cccc3Cl)noc2C)cc1 [F07, N4-{2-[(4-methylphenyl)sulfonyl]ethyl}-3-(2,6-dichlorophenyl)-5-methylisoxazole-4-carboxamide]
cytotoxicity at 50 µM (MCF7): 4.4 ± 0.118% | cytotoxicity at 50 µM (MCF7 3D spheroids; Homo sapiens): 54.2 ± 0.53%

OC(CSc1ccccc1)CN1CCN(c2nccc(C(F)(F)F)n2)CC1 (centres unmarked) [F08, 1-(phenylthio)-3-{4-[4-(trifluoromethyl)pyrimidin-2-yl]piperazino}propan-2-ol]
cytotoxicity at 50 µM (MCF7): 100 ± 0.003% | cytotoxicity at 50 µM (MCF7 3D spheroids; Homo sapiens): 61.6 ± 0.8%

Cc1nnsc1-c1nnc(-c2ccccc2C(F)(F)F)o1 [F09, 2-(4-methyl-1,2,3-thiadiazol-5-yl)-5-[2-(trifluoromethyl)phenyl]-1,3,4-oxadiazole]
cytotoxicity at 50 µM (MCF7): 9.9 ± 3.8% | cytotoxicity at 50 µM (MCF7 3D spheroids; Homo sapiens): 14.2 ± 0.5%

O=C1C(=C2NC(c3ccccn3)C3C(=O)N(c4ccc(OC(F)(F)F)cc4)C(=O)C23)C(=O)c2ccccc21 (centres unmarked) [F10, 4-(1,3-dioxo-2,3-dihydro-1H-inden-2-yliden)-6-(2-pyridyl)-2-[4-(trifluoromethoxy)phenyl]perhydropyrrolo [3,4-c]pyrrole-1,3-dione]
cytotoxicity at 50 µM (MCF7): 100 ± 0.003% | cytotoxicity at 50 µM (MCF7 3D spheroids; Homo sapiens): 60.3 ± 1.1%

NS(=O)(=O)c1cccc(NC(=O)Nc2ccccc2)c1 [F11, 3-[(anilinocarbonyl)amino]benzenesulfonamide]
cytotoxicity at 50 µM (MCF7): 0% | cytotoxicity at 50 µM (MCF7 3D spheroids; Homo sapiens): 60.4 ± 0.77%

Cn1c(SCC(=O)NN2CC(=O)N(c3cccc(Cl)c3)CC2=O)nnc1-c1ccncc1 [G02, N-[4-(3-chlorophenyl)-2,5-dioxopiperazino]-2-{[4-methyl-5-(4-pyridinyl)-4H-1,2,4-triazol-3-yl]sulfanyl}acetamide]
cytotoxicity at 50 µM (MCF7): 0% | cytotoxicity at 50 µM (MCF7 3D spheroids; Homo sapiens): -9.9 ± 0.8%

COc1cc(C(F)(F)F)nc2ccc(C#CCOC(=O)c3ccccc3)cc12 [G03, 3-[4-methoxy-2-(trifluoromethyl)-6-quinolyl]prop-2-ynyl benzoate]
cytotoxicity at 50 µM (MCF7): 49.8 ± 2.9% | cytotoxicity at 50 µM (MCF7 3D spheroids; Homo sapiens): 21.3 ± 0.6%
